Assay results from US20230117034A1, “PYRAZOLOTRIAZINES” (Bayer Aktiengesellschaft, priority 2019, published 2023).
Read-outs that look alike come from different tables or passages of the source.

Experiments:
[1] = test system: MDA-MB-231, human breast cancer cells; assay: Proliferation assay MDA-MB-231 (crystal violet, 4 days); assay type: cell-based; conditions: Homo sapiens, MDA-MB-231 cells, median, read-out: Prolif-MDA MB-231, IC50-[mol/l] (median)
Method in brief: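 IC50 from a 4-parameter fit of crystal violet absorbance (595 nm), scaled between the day-of-dosing plate (0%) and vehicle cells (100%). MDA-MB-231 or CAL-120 cells were treated for 4 days with 0.01–10 micromol/L compound in 0.1% DMSO after 24 h attachment.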

CDK2/CycE = target: T1, CDK2/CycE (Homo sapiens, UniProt P24941); assay: CDK2/CycE kinase assay (TR-FRET, 2 mM ATP); assay type: biochemical; conditions: 2 mM ATP (high ATP); median; read-out: CDK2/CyclinE, 2 mM ATP (high ATP), IC50 (median)
T1 construct: purchased ProQinase GmbH (Freiburg, Germany); host or cells: insect cells (Sf9)
Method in brief: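 Biotin-peptide phosphorylation (0.75 µM substrate, 2 mM ATP final, 25 min, 22 °C) by Sf9-expressed GST-CDK2/GST-CycE, after a 15-min compound pre-binding step. Inhibition scaled between enzyme-free (100%) and uninhibited (0%) wells.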

SMILES	IC50 ([1]; MDA-MB-231, 96 h)	IC50 (CDK2/CycE)	IC50 ([1]; 96 h)
CN(CC(C)(C)O)c1nc(NCc2nc3c(F)c(Cl)ccc3[nH]2)n2ncc(C3CC3)c2n1 [Example 387, 1-[(4-{[(5-chloro-4-fluoro-1H-benzimidazol-2-yl)methyl]amino}-8-cyclopropylpyrazolo[1,5-a][1,3,5]triazin-2-yl)(methyl)amino]-2-methylpropan-2-ol]	0.00457 µM	5.35 µM	
CC[C@H](CO)Nc1nc(NCc2nc3ccccc3[nH]2)n2ncc(Br)c2n1 [Example 368, (2R)-2-[(4-{[(1H-benzimidazol-2-yl)methyl]amino}-8-bromopyrazolo[1,5-a][1,3,5]triazin-2-yl)amino]butan-1-ol]	0.173 µM	0.885 µM	
Fc1cccc2[nH]c(CNc3nc(N4CC5CCC(C4)N5)nc4c(Cl)cnn34)nc12 [Example 363, 8-chloro-2-(3,8-diazabicyclo[3.2.1]octan-3-yl)-N-[(4-fluoro-1H-benzimidazol-2-yl)methyl]pyrazolo[1,5-a][1,3,5]triazin-4-amine]	0.0346 µM	8.61 µM	
CN(CC(C)(C)O)c1nc(NCc2nc3c(F)c(F)ccc3[nH]2)n2ncc(Cl)c2n1 [Example 359, 1-[(8-chloro-4-{[(4,5-difluoro-1H-benzimidazol-2-yl)methyl]amino}pyrazolo[1,5-a][1,3,5]triazin-2-yl)(methyl)amino]-2-methylpropan-2-ol]	0.0152 µM	12.4 µM	
Cc1cc2nc(CNc3nc(N4CCN(C)CC4)nc4c(Br)cnn34)[nH]c2cc1C [Example 342, 8-bromo-N-[(5,6-dimethyl-1H-benzimidazol-2-yl)methyl]-2-(4-methylpiperazin-1-yl)pyrazolo[1,5-a][1,3,5]triazin-4-amine]	0.00197 µM	2.94 µM	
Fc1c(Cl)ccc2[nH]c(CNc3nc(N4CCOCC4)nc4c(C5CC5)cnn34)nc12 [Example 370, N-[(5-chloro-4-fluoro-1H-benzimidazol-2-yl)methyl]-8-cyclopropyl-2-(morpholin-4-yl)pyrazolo[1,5-a][1,3,5]triazin-4-amine]	0.00718 µM	> 20 µM	
Cc1ccnc2[nH]c(CNc3nc(N4CCOCC4)nc4c(C(C)C)cnn34)nc12 [Example 28, N-[(7-methyl-3H-imidazo[4,5-b]pyridin-2-yl)methyl]-2-(morpholin-4-yl)-8-(propan-2-yl)pyrazolo[1,5-a][1,3,5]triazin-4-amine]	0.0745 µM	6.02 µM	
Cc1cc2nc(CNc3nc(N4CC5CCC(C4)N5)nc4c(C5CC5)cnn34)[nH]c2cc1C [Example 326, 8-cyclopropyl-2-(3,8-diazabicyclo[3.2.1]octan-3-yl)-N-[(5,6-dimethyl-1H-benzimidazol-2-yl)methyl]pyrazolo[1,5-a][1,5]triazin-4-amine]	0.00157 µM	4.14 µM	
Brc1cnn2c(NCc3nc4ccccc4[nH]3)nc(N3CC4CCC3CO4)nc12 (stereo not shown) [Example 352, N-[(1H-benzimidazol-2-yl)methyl]-8-bromo-2-(2-oxa-5-azabicyclo[2.2.2]octan-5-yl)pyrazolo[1,5-a][1,3,5]triazin-4-amine]	0.0188 µM	2.3 µM	
C[C@H]1CN(C)CCN1c1nc(NCc2nc3c(F)cccc3[nH]2)n2ncc(C(F)(F)F)c2n1 [Example 388, 2-[(2S)-2,4-dimethylpiperazin-1-yl]-N-[(4-fluoro-1H-benzimidazol-2-yl)methyl]-8-(trifluoromethyl)pyrazolo[1,5-a][1,3,5]triazin-4-amine]	0.0302 µM	> 20 µM	
CN(CC(C)(C)O)c1nc(NCc2nc3c(F)c(Cl)ccc3[nH]2)n2ncc(Br)c2n1 [Example 374, 1-[(8-bromo-4-{[(5-chloro-4-fluoro-1H-benzimidazol-2-yl)methyl]amino}pyrazolo[1,5-a][1,3,5]triazin-2-yl)(methyl)amino]-2-methylpropan-2-ol]	0.00362 µM	3.12 µM	
Fc1cccc(-c2nnc(CNc3nc(N4CCOCC4)nc4c(C(F)(F)F)cnn34)[nH]2)c1 [Example 385, N-{[5-(3-fluorophenyl)-4H-1,2,4-triazol-3-yl]methyl}-2-(morpholin-4-yl)-8-(trifluoromethyl)pyrazolo[1,5-a][1,3,5]triazin-4-amine]	0.0438 µM	1.81 µM	
CN(CC(C)(C)O)c1nc(NCc2nc3cc(F)c(Cl)cc3[nH]2)n2ncc(Br)c2n1 [Example 338, 1-[(8-bromo-4-{[(6-chloro-5-fluoro-1H-benzimidazol-2-yl)methyl]amino}pyrazolo[1,5-a][1,3,5]triazin-2-yl)(methyl)amino]-2-methylpropan-2-ol]	0.0031 µM	6.57 µM	
CN1CCN(c2nc(NCc3nc4cc(F)c(Cl)cc4[nH]3)n3ncc(Br)c3n2)CC1 [Example 337, 8-bromo-N-[(6-chloro-5-fluoro-1H-benzimidazol-2-yl)methyl]-2-(4-methylpiperazin-1-yl)pyrazolo[1,5-a][1,3,5]triazin-4-amine]	0.00245 µM	17.8 µM	
FC(F)(F)c1ccc2[nH]c(CNc3nc(N4CC5CCC(C4)N5)nc4c(C5CC5)cnn34)nc2c1 [Example 327, 8-cyclopropyl-2-(3,8-diazabicyclo[3.2.1]octan-3-yl)-N-{[5-(trifluoromethyl)-1H-benzimidazol-2-yl]methyl}pyrazolo[1,5-a][1,3,5]triazin-4-amine]	0.00227 µM	> 18.7 µM	
Clc1cc2nc(CNc3nc(N4CCOCC4)nc4c(Br)cnn34)[nH]c2cc1Cl [Example 329, 8-bromo-N-[(5,6-dichloro-1H-benzimidazol-2-yl)methyl]-2-(morpholin-4-yl)pyrazolo[1,5-a][1,3,5]triazin-4-amine]	0.00766 µM	9.46 µM	
Fc1cc2nc(CNc3nc(N4CC5CCC(C4)N5)nc4c(C5CC5)cnn34)[nH]c2cc1F [Example 325, 8-cyclopropyl-2-(3,8-diazabicyclo[3.2.1]octan-3-yl)-N-[(5,6-difluoro-1H-benzimidazol-2-yl)methyl]pyrazolo[1,5-a][1,5]triazin-4-amine]	0.00322 µM	> 20 µM	
FC(F)(F)c1ccc2[nH]c(CNc3nc(N4CCOCC4)nc4c(C5CC5)cnn34)nc2c1 [Example 322, 8-cyclopropyl-2-(morpholin-4-yl)-N-{[5-(trifluoromethyl)-1H-benzimidazol-2-yl]methyl}pyrazolo[1,5-a][1,3,5]triazin-4-amine]	0.00885 µM	> 20 µM	
CN1C2CCC1CN(c1nc(NCc3nc4c(F)cccc4[nH]3)n3ncc(C(F)(F)F)c3n1)C2 [Example 384, N-[(4-fluoro-1H-benzimidazol-2-yl)methyl]-2-(8-methyl-3,8-diazabicyclo[3.2.1]octan-3-yl)-8-(trifluoromethyl)pyrazolo[1,5-a][1,3,5]triazin-4-amine]	0.00848 µM	> 20 µM	
CN1CCN(c2nc(NCc3nc4cc(OC(F)(F)F)ccc4[nH]3)n3ncc(Br)c3n2)CC1 [Example 377, 8-bromo-2-(4-methylpiperazin-1-yl)-N-{[5-(trifluoromethoxy)-1H-benzimidazol-2-yl]methyl}pyrazolo[1,5-a][1,3,5]triazin-4-amine]	0.116 µM	17.1 µM	
Fc1cc2nc(CNc3nc(N4CC5CCC(C4)N5)nc4c(Br)cnn34)[nH]c2cc1Cl [Example 348, 8-bromo-N-[(6-chloro-5-fluoro-1H-benzimidazol-2-yl)methyl]-2-(3,8-diazabicyclo[3.2.1]octan-3-yl)pyrazolo[1,5-a][1,3,5]triazin-4-amine]		13.2 µM	0.002 µM
Brc1cnn2c(NCc3nc4ccccc4[nH]3)nc(N3C[C@H]4CC[C@@H]3CO4)nc12 (single isomer, unassigned) [Example 383, N-[(1H-benzimidazol-2-yl)methyl]-8-bromo-2-{[1R or S-(1R*,4R*)]-2-oxa-5-azabicyclo[2.2.2]octan-5-yl}pyrazolo[1,5-a][1,3,5]triazin-4-amine]	0.03 µM	3.95 µM	
Fc1c(Cl)ccc2[nH]c(CNc3nc(N4CC5CCC(C4)N5)nc4c(C5CC5)cnn34)nc12 [Example 379, N-[(5-chloro-4-fluoro-1H-benzimidazol-2-yl)methyl]-8-cyclopropyl-2-(3,8-diazabicyclo[3.2.1]octan-3-yl)pyrazolo[1,5-a][1,3,5]triazin-4-amine]	0.00292 µM	14.3 µM	
CN(CC(C)(C)O)c1nc(NCc2nc3cc(C(F)(F)F)ccc3[nH]2)n2ncc(Br)c2n1 [Example 345, 1-{[8-bromo-4-({[5-(trifluoromethyl)-1H-benzimidazol-2-yl]methyl}amino)pyrazolo[1,5-a][1,3,5]triazin-2-yl](methyl)amino}-2-methylpropan-2-ol]	0.00344 µM	6.07 µM	
Fc1c(Cl)ccc2[nH]c(CNc3nc(N4CC5CCC(C4)N5)nc4c(Br)cnn34)nc12 [Example 380, 8-bromo-N-[(5-chloro-4-fluoro-1H-benzimidazol-2-yl)methyl]-2-(3,8-diazabicyclo[3.2.1]octan-3-yl)pyrazolo[1,5-a][1,3,5]triazin-4-amine]	0.00219 µM	9.26 µM	
FC(F)(F)Oc1cccc2[nH]c(CNc3nc(N4CCOCC4)nc4c(Br)cnn34)nc12 [Example 375, 8-bromo-2-(morpholin-4-yl)-N-{[4-(trifluoromethoxy)-1H-benzimidazol-2-yl]methyl}pyrazolo[1,5-a][1,3,5]triazin-4-amine]	0.142 µM	11.9 µM	
